Source: patent US7402589B2, “Tri-substituted ureas as cytokine inhibitors” (The Procter & Gamble Company, priority 2004, dated 2008)

These compounds were tested on TNF-α (assay: TNF-α inhibition in lipopolysaccharide (LPS) stimulated human monocytic cells (THP-1)). Conditions: LPS (1 μg/mL) stimulated THP-1 cells, 4 hours, human TNF-α by ELISA.
Type: cell-based
Excerpt: In addition, Tumor Necrosis Factor, TNF-α, inhibition can be measured by utilizing lipopolysaccharide (LPS) stimulated human monocytic cells (THP-1) as described in: • i) K. M. Mohler et al., “Protection Against a Lethal Dose of Endotoxin by an Inhibitor of Tumour Necrosis Factor Processing”, Nature, 370, pp 218-220 (1994). • ii) U.S. Pat. No. 6,297,381 B1 Cirillo et al., issued Oct. 2, 2001, incorporated by reference and reproduced herein below in relevant portion thereof.
The inhibition of cytokine production can be observed by measuring inhibition of TNF-α in lipopolysaccharide stimulated THP cells. All cells and reagents are diluted in RPMI 1640 with phenol red and L-glutamine, supplemented with additional L-glutamine (total: 4 mM), penicillin and streptomycin (50 units/mL each) and fetal bovine serum (FBS 3%) (GIBCO, all conc. Final). Assay is performed under sterile conditions, only test compound preparation is non-sterile. Initial stock solutions are made in DMSO followed by dilution into RPMI 1640 2-fold higher than the desired final assay concentration. Confluent THP.1 cells (2×10^7 cells/mL, final conc.; American Type Culture Company, Rockville, Md.) are added to 96 well polypropylene round bottomed culture plates (Costar 3790; sterile) containing 125 μL test compound (2-fold concentrated) or DMSO vehicle (controls, blanks). DMSO concentration should not exceed 0.2% final. Cell mixture is allowed to preincubate for 15 minutes at 37° C., 5% CO2 prior to stimulation with lipopolysaccharide (LPS, 1 μg/mL final; Sigma L-2630, from E. coli serotype 0111.B4; stored as 1 mg/mL stock in endotoxin screened diluted H2O vehicle at −80° C.). Blanks (unstimulated) receive H2O vehicle; final incubation volume is 250 μL. Incubation (4 hours) proceeds as described above. Assay is to be terminated by centrifuging plates 5 minutes at room temperature, 1600 rpm […]; supernatants are then transferred to clean 96 well plates and stored at −80° C. until analyzed for human TNF-α by a commercially available ELISA kit (Biosource #KHC3015, Camarillo, Calif.). The calculated IC50 value is the concentration of the test compound that caused a 50% decrease in the maximal TNF-α production.

SMILES | IC50 [nM]
O=C(NCc1ccccc1Cl)N(c1ccc(F)cc1)c1ccnc(NC2CCOCC2)n1 [1-(4-Fluorophenyl)-1-[2-(tetrahydropyran-4-ylamino)-pyrimidin-4-yl]-3-(2-chlorobenzyl)-urea] | 16
COc1ccc(N(C(=O)NCc2ccccc2F)c2ccnc(N[C@@H](C)C(C)(C)O)n2)cc1 [1-(4-Methoxyphenyl)-1-{2-[(1S)-2-hydroxy-1,2-dimethyl-propylamino]-pyrimidin-4-yl}-3-(2-fluorobenzyl)-urea] | 13
COc1ccc(N(C(=O)NCc2ccccc2OC)c2ccnc(N[C@@H](C)C(C)(C)O)n2)cc1 [1-(4-Methoxyphenyl)-1-{2-[(1S)-2-hydroxy-1,2-dimethyl-propylamino]-pyrimidin-4-yl}-3-(2-methoxybenzyl)-urea] | 15
COc1ccc(N(C(=O)NCc2ccccc2C)c2ccnc(N[C@@H](C)C(C)(C)O)n2)cc1 [1-(4-Methoxyphenyl)-1-{2-[(1S)-2-hydroxy-1,2-dimethyl-propylamino]-pyrimidin-4-yl}-3-(2-methylbenzyl)-urea] | 37

Further compounds by falling IC50, results first:

IC50 [nM] | SMILES
56 | CCOc1ccc(N(C(=O)NCc2ccccc2Cl)c2ccnc(N[C@@H](C)COC)n2)cc1 [1-(4-Ethoxyphenyl)-1-{2-[(1S)-2-methoxy-1-methyl-ethylamino]-pyrimidin-4-yl}-3-(2-chlorobenzyl)-urea]
14 | C[C@H](Nc1nccc(N(C(=O)NCc2ccccc2Cl)c2ccc(F)cc2)n1)C(C)(C)O [1-(4-Fluorophenyl)-1-{2-[(1S)-2-hydroxy-1,2-dimethyl-propylamino]-pyrimidin-4-yl}-3-(2-chlorobenzyl)-urea]
9 | COc1ccc(N(C(=O)NCc2ccccc2Cl)c2ccnc(N[C@@H](C)C(C)(C)O)n2)cc1 [1-(4-Methoxyphenyl)-1-{2-[(1S)-2-hydroxy-1,2-dimethyl-propylamino]-pyrimidin-4-yl}-3-(2-chlorobenzyl)-urea]
